According to ChEMBL document CHEMBL3045332, “Synthesis of some new 2,6-disubstituted-3(2H)-pyridazinone derivatives and investigation of their analgesic, anti-inflammatory and antimicrobial activities” (Med Chem Res, 2013):
Converted amounts (≈) assume the structure as drawn.

Experiments:
Pseudomonas aeruginosa [1] = experiment: Antibacterial activity against Pseudomonas aeruginosa cloinical isolate after 24 hr by two-fold serial dilution method; type: functional
Enterococcus faecalis [2] = experiment: Antibacterial activity against Enterococcus faecalis ATCC 29212 after 24 hr by two-fold serial dilution method; type: functional; details: ATCC 29212, 24 h
Escherichia coli [3] = experiment: Antibacterial activity against Escherichia coli ATCC 25922 after 24 hr by two-fold serial dilution method; type: functional; details: ATCC 25922, 24 h
Staphylococcus aureus [4] = experiment: Antibacterial activity against Staphylococcus aureus ATCC 29213 after 24 hr by two-fold serial dilution method; type: functional; details: ATCC 29213, 24 h
Candida albicans = experiment: Antifungal activity against Candida albicans ATCC 10231 after 48 hr by two-fold serial dilution method; type: functional; details: ATCC 10231, 48 h
Enterococcus faecalis [5] = experiment: Antibacterial activity against Enterococcus faecalis clinical isolate after 24 hr by two-fold serial dilution method; type: functional
Escherichia coli [6] = experiment: Antibacterial activity against Escherichia coli clinical isolate expressing extended spectrum beta-lactamase after 24 hr by two-fold serial dilution method; type: functional
Staphylococcus aureus [7] = experiment: Antibacterial activity against methicillin-resistant Staphylococcus aureus clinical isolate after 24 hr by two-fold serial dilution method; type: functional
Mus musculus [8] = experiment: Anti-inflammatory activity in Swiss albino Mus musculus (mouse) assessed as inhibition of carrageenan-induced paw edema at 100 mg/kg, po administered 60 min prior to crrageenan-challenge measured at 360 min relative to control; type: functional
Pichia kudriavzevii = experiment: Antifungal activity against Pichia kudriavzevii ATCC 6258 after 48 hr by two-fold serial dilution method; type: functional; details: ATCC 6258, 48 h
Mus musculus [9] = experiment: Analgesic activity in Swiss albino Mus musculus (mouse) assessed as inhibition of p-benzoquinone-induced writhing at 100 mg/kg, po administered 60 min prior to p-benzoquinone-challenge measured up to 15 min relative to control; type: functional
Pseudomonas aeruginosa [10] = experiment: Antibacterial activity against Pseudomonas aeruginosa ATCC 27853 after 24 hr by two-fold serial dilution method; type: functional; details: ATCC 27853, 24 h
Mus musculus [11] = experiment: Anti-inflammatory activity in Swiss albino Mus musculus (mouse) assessed as inhibition of carrageenan-induced paw edema at 100 mg/kg, po administered 60 min prior to crrageenan-challenge measured at 270 min relative to control; type: functional
Mus musculus [12] = experiment: Ulcerogenic activity in p-benzoquinone-challenged Swiss albino Mus musculus (mouse) at 100 mg/kg, po administered 60 min prior to p-benzoquinone-challenge by microscopic analysis; type: toxicity, organism-based; design: dose 100 mg/kg, route oral; details: in vivo, 1 h
Mus musculus [13] = experiment: Anti-inflammatory activity in Swiss albino Mus musculus (mouse) assessed as inhibition of carrageenan-induced paw edema at 100 mg/kg, po administered 60 min prior to crrageenan-challenge measured at 180 min relative to control; type: functional
Mus musculus [14] = experiment: Anti-inflammatory activity in Swiss albino Mus musculus (mouse) assessed as inhibition of carrageenan-induced paw edema at 100 mg/kg, po administered 60 min prior to crrageenan-challenge measured at 90 min relative to control; type: functional

| SMILES | MIC (Pseudomonas aeruginosa [1]) [µg/mL] | MIC (Enterococcus faecalis [2]) [µg/mL] | MIC (Escherichia coli [3]) [µg/mL] | MIC (Staphylococcus aureus [4]) [µg/mL] | MIC (Candida albicans) [µg/mL] | MIC (Enterococcus faecalis [5]) [µg/mL] | MIC (Escherichia coli [6]) [µg/mL] | MIC (Staphylococcus aureus [7]) [µg/mL] | inhibition in vivo at 100 mg/kg (Mus musculus [8]) [%] | MIC (Pichia kudriavzevii) [µg/mL] | inhibition in vivo at 100 mg/kg (Mus musculus [9]) [%] | MIC (Pseudomonas aeruginosa [10]) [µg/mL] | inhibition in vivo at 100 mg/kg (Mus musculus [11]) [%] | Activity (Mus musculus [12]) | inhibition in vivo at 100 mg/kg (Mus musculus [13]) [%] | inhibition in vivo at 100 mg/kg (Mus musculus [14]) [%] |
| --- | --- | --- | --- | --- | --- | --- | --- | --- | --- | --- | --- | --- | --- | --- | --- | --- |
| O=c1ccc(-c2ccccc2)nn1CCN1CCN(c2ccccc2)CC1 | 64 (≈ 178 µM) | 64 (≈ 178 µM) | 64 (≈ 178 µM) | 64 (≈ 178 µM) | 32 (≈ 88.8 µM) | 64 (≈ 178 µM) | 64 (≈ 178 µM) | 128 (≈ 355 µM) | 3.1 | 32 (≈ 88.8 µM) | 10.7 | 64 (≈ 178 µM) | 6.4 | Non-toxic | – | – |
| O=c1ccc(-c2ccccc2)nn1CCN1CCN(c2ccc(Cl)cc2)CC1 | 64 (≈ 162 µM) | 64 (≈ 162 µM) | 64 (≈ 162 µM) | 64 (≈ 162 µM) | 32 (≈ 81 µM) | 64 (≈ 162 µM) | 64 (≈ 162 µM) | 128 (≈ 324 µM) | 12.1 | 32 (≈ 81 µM) | 23.3 | 64 (≈ 162 µM) | 14.8 | Non-toxic | 14.9 | 16.2 |
| O=c1ccc(-c2ccccc2)nn1CCN1CCN(c2ccc(F)cc2)CC1 | 64 (≈ 169 µM) | 64 (≈ 169 µM) | 64 (≈ 169 µM) | 64 (≈ 169 µM) | 32 (≈ 84.6 µM) | 64 (≈ 169 µM) | 64 (≈ 169 µM) | 128 (≈ 338 µM) | 19.5 | 32 (≈ 84.6 µM) | 16.8 | 64 (≈ 169 µM) | 29.9 | Non-toxic | 26.3 | 10.6 |
| COc1ccc(N2CCN(CCn3nc(-c4ccccc4)ccc3=O)CC2)cc1 | 64 (≈ 164 µM) | 64 (≈ 164 µM) | 64 (≈ 164 µM) | 64 (≈ 164 µM) | 32 (≈ 81.9 µM) | 64 (≈ 164 µM) | 64 (≈ 164 µM) | 128 (≈ 328 µM) | – | 32 (≈ 81.9 µM) | 8.6 | 64 (≈ 164 µM) | – | Non-toxic | – | – |
| COc1ccc(-c2ccc(=O)n(CCN3CCN(c4ccccc4)CC3)n2)cc1 | 64 (≈ 164 µM) | 64 (≈ 164 µM) | 64 (≈ 164 µM) | 64 (≈ 164 µM) | 32 (≈ 81.9 µM) | 64 (≈ 164 µM) | 64 (≈ 164 µM) | 128 (≈ 328 µM) | – | 32 (≈ 81.9 µM) | 18.4 | 64 (≈ 164 µM) | – | Non-toxic | 12.6 | 11.9 |
| COc1ccc(-c2ccc(=O)n(CCN3CCN(c4ccc(Cl)cc4)CC3)n2)cc1 | 64 (≈ 151 µM) | 64 (≈ 151 µM) | 64 (≈ 151 µM) | 64 (≈ 151 µM) | 32 (≈ 75.3 µM) | 64 (≈ 151 µM) | 64 (≈ 151 µM) | 128 (≈ 301 µM) | 26.2 | 32 (≈ 75.3 µM) | 44.4 | 64 (≈ 151 µM) | 27.5 | Toxic | 19.8 | 16.9 |
| COc1ccc(-c2ccc(=O)n(CCN3CCN(c4ccc(F)cc4)CC3)n2)cc1 | 64 (≈ 157 µM) | 64 (≈ 157 µM) | 64 (≈ 157 µM) | 64 (≈ 157 µM) | 32 (≈ 78.3 µM) | 64 (≈ 157 µM) | 64 (≈ 157 µM) | 128 (≈ 313 µM) | 18.3 | 32 (≈ 78.3 µM) | 47.6 | 64 (≈ 157 µM) | 22.9 | Toxic | 15.5 | 16.2 |
| COc1ccc(-c2ccc(=O)n(CCN3CCN(c4ccc(OC)cc4)CC3)n2)cc1 | 64 (≈ 152 µM) | 64 (≈ 152 µM) | 64 (≈ 152 µM) | 64 (≈ 152 µM) | 32 (≈ 76.1 µM) | 64 (≈ 152 µM) | 64 (≈ 152 µM) | 128 (≈ 304 µM) | 7.9 | 32 (≈ 76.1 µM) | 5.6 | 64 (≈ 152 µM) | 13.6 | Non-toxic | – | – |
| O=c1ccc(-c2ccc(Cl)cc2)nn1CCN1CCN(c2ccccc2)CC1 | 64 (≈ 162 µM) | 64 (≈ 162 µM) | 64 (≈ 162 µM) | 64 (≈ 162 µM) | 32 (≈ 81 µM) | 64 (≈ 162 µM) | 64 (≈ 162 µM) | 128 (≈ 324 µM) | – | 32 (≈ 81 µM) | 20.1 | 64 (≈ 162 µM) | 7.4 | Non-toxic | 1.4 | – |
